This note sets out measurements from US9552457B2, “Reprogramming effector protein interactions to correct epigenetic defects in cancer” (BRITISH COLUMBIA CANCER AGENCY BRANCH, priority 2012, dated 2017).

For assay [1], the system named is DoHH2 Cells (wildtype for EZH2, MEF2B and MLL2). Put plainly: Cell viability of lymphoma cell lines, DoHH-2. Type of assay: cell-based. The note with it: DoHH-2, in words. The method, then:
(§1) Compound 50 was tested for its effect on the viability of three lymphoma cell lines in vitro using standard methods. The cell lines tested were: DoHH-2 (wildtype for EZH2, MEF2B and MLL2); WSU-DLCL2 (EZH2 mutation Y641F (wildtype for MEF2B and MLL2)) and DB (EZH2 mutation Y641N, the MEF2B mutation D83V and three mutations in MLL2 (two of which lead to a truncated protein after residue Q2736 and the third allele has a 1 base pair deletion at residue P480)).
(§2) Compound 51 (NSC2540) was tested for its effect on the viability of four lymphoma cell lines in vitro using standard methods. The cell lines tested were DoHH-2, WSU-DLCL2, DB and SU-DHL-9 (EZH2 wildtype, MEF2B wildtype, MLL2 indel).

The test system of assay [2] is WSU-DLCL2 Cells (EZH2 mutation Y641F). The experiment in a line: Cell viability of lymphoma cell lines, WSU-DLCL2. Type of assay: cell-based, human. The note with it: WSU-DLCL2, in words. The method, then:
as §1, §2

Assay [3] concerns SU-DHL-9 (EZH2 wildtype, MEF2B wildtype, MLL2 indel). Put plainly: Cell viability of lymphoma cell lines, SU-DHL-9 (CBX2 compound). The format is cell-based, human. The following applies: SU-DHL-9, in words. How it is done: as §2
Assay [4] relates to WSU-DLCL2 human diffuse large cell lymphoma tumours. The experiment in a line: WSU-DLCL2 mouse xenograft model. The note with it: intraperitoneal 4 mg/kg for 5 days then 2 mg/kg for 5 days, evaluation at day 12; p=0.0125. Type of assay: in vivo. How it is done:
WSU-DLCL2 tumourfragments were transplanted subcutaneously into the flank of male NSG mice. Mice were 9.0-9.3 weeks at transplantation and treatment was started when the mice were between 12.9 and 13.1 weeks. 8 mice were used per group and treatment was daily for ten days with evaluation at day 12. Tumoursize determined by caliper every four days, tumourvolume calculated by length×width^2/2.
The groups of mice were treated with vehicle (control), 1 mg/kg Compound 50 or 4 mg/kg Compound 50 by intraperitoneal injection. Vehicle was 50% DMSO/50% PEG-400.
WSU-DLCL2 tumourfragments were transplanted subcutaneously into the flank of male NSG mice. Mice were 5.3-9.4 weeks at transplantation and treatment was started when the mice were between 8.6 and 12.7 weeks. 8 mice were used in the control group and 6 mice were used in the Compound 51 treated group. Treatment was daily for ten days with evaluation at day 12. Tumoursize determined by caliper every four days, tumourvolume calculated by length×width^2/2.
The groups of mice were treated with vehicle (control) or Compound 51 by intraperitoneal injection at 4 mg/kg for the first 5 days and 2 mg/kg for the subsequent 5 days. Vehicle was 50% DMSO/50% PEG-400.

The subject of a further assay is MDA-MB-231. Put plainly: Viability of breast cancer cell lines, MDA-MB-231. The note with it: MDA-MB-231, in words. Type of assay: cell-based. How it is done: (§3) Compounds 50 and 51 were tested for their effect on the viability of four breast cancer cell lines in vitro using standard methods. The cell lines tested were: MCF-7, MDA-MB-231, HCC202 (CRL-2316) and HCC1500 (CRL-2329).

For another assay, the system named is HCC202 (CRL-2316). The experiment in a line: Viability of breast cancer cell lines, HCC202. The note with it: in words. The format is cell-based. The method, then:
as §3

The subject of a further assay is HCC1500 (CRL-2329). Put plainly: Viability of breast cancer cell lines, HCC1500. Type of assay: cell-based. The note with it: in words. The method, then: as §3

SMILES strings stand for the structures.

Turning to `OC(c1cc(-c2ccc(Cl)c(Cl)c2)nc2ccccc12)C1CCCCN1` (stereo not shown) [Compound 51], the effect on viability entry (in assay [1]; in assay [2]; in assay [3]; with MDA-MB-231; in the assay with HCC202 (CRL-2316); in the assay with HCC1500 (CRL-2329)) was “able to decrease viability” each time. The “effect on tumour volume” value in assay [4] is on record as “able to significantly reduce tumourvolume”.
